# Values joined by “and” are separate entries in the source; they are usually repeats but may differ in a detail not shown here. Equal values may be shown once.
# Columns and labels:
# RSV MTase-CTD = RSV MTase-CTD (Human respiratory syncytial virus A, UniProt P28887); experiment: MTase activity inhibition, filter-binding assay (3H-methyl transfer from SAM to GpppG-RSV9 RNA); assay type: biochemical; conditions: for IC50: 25 nM RSV MTase-CTD, 0.7 μM GpppG-RSV9 RNA, 2 μM SAM, pH 7.5, 30°C, Hill slope curve-fitting
# Chain of RSV MTase-CTD (P28887 1755-2165): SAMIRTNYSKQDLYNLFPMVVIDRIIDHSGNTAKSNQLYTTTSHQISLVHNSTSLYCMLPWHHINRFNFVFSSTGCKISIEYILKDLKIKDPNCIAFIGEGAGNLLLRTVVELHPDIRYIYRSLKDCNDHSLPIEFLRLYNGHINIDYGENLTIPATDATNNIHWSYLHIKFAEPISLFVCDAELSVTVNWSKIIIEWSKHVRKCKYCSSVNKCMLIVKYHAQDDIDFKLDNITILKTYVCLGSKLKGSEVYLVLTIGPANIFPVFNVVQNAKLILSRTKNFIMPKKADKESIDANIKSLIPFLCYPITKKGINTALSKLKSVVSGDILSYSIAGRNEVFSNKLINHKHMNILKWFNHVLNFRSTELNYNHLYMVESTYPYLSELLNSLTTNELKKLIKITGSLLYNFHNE
# RSV L-P complex = RSV L-P complex (Human respiratory syncytial virus A, UniProt P28887); experiment: MTase activity inhibition, filter-binding assay with the RSV L-P complex; assay type: biochemical, human RSV (strain A2); conditions: 60 nM RSV L-P complex, 1.8 μM GpppG-RSV9 RNA, 0.17 μM SAM and 0.8 μM 3H-SAM, pH 7.5, 30°C
# Chain of RSV L-P complex (P03421 whole entry): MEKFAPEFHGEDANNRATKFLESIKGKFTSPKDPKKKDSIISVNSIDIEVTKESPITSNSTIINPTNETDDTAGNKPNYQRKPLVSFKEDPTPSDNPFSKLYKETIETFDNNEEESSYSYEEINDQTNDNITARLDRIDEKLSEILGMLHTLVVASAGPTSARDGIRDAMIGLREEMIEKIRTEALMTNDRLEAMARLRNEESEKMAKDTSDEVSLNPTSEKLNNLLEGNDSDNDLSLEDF
# Chain of RSV L-P complex (P28887 whole entry): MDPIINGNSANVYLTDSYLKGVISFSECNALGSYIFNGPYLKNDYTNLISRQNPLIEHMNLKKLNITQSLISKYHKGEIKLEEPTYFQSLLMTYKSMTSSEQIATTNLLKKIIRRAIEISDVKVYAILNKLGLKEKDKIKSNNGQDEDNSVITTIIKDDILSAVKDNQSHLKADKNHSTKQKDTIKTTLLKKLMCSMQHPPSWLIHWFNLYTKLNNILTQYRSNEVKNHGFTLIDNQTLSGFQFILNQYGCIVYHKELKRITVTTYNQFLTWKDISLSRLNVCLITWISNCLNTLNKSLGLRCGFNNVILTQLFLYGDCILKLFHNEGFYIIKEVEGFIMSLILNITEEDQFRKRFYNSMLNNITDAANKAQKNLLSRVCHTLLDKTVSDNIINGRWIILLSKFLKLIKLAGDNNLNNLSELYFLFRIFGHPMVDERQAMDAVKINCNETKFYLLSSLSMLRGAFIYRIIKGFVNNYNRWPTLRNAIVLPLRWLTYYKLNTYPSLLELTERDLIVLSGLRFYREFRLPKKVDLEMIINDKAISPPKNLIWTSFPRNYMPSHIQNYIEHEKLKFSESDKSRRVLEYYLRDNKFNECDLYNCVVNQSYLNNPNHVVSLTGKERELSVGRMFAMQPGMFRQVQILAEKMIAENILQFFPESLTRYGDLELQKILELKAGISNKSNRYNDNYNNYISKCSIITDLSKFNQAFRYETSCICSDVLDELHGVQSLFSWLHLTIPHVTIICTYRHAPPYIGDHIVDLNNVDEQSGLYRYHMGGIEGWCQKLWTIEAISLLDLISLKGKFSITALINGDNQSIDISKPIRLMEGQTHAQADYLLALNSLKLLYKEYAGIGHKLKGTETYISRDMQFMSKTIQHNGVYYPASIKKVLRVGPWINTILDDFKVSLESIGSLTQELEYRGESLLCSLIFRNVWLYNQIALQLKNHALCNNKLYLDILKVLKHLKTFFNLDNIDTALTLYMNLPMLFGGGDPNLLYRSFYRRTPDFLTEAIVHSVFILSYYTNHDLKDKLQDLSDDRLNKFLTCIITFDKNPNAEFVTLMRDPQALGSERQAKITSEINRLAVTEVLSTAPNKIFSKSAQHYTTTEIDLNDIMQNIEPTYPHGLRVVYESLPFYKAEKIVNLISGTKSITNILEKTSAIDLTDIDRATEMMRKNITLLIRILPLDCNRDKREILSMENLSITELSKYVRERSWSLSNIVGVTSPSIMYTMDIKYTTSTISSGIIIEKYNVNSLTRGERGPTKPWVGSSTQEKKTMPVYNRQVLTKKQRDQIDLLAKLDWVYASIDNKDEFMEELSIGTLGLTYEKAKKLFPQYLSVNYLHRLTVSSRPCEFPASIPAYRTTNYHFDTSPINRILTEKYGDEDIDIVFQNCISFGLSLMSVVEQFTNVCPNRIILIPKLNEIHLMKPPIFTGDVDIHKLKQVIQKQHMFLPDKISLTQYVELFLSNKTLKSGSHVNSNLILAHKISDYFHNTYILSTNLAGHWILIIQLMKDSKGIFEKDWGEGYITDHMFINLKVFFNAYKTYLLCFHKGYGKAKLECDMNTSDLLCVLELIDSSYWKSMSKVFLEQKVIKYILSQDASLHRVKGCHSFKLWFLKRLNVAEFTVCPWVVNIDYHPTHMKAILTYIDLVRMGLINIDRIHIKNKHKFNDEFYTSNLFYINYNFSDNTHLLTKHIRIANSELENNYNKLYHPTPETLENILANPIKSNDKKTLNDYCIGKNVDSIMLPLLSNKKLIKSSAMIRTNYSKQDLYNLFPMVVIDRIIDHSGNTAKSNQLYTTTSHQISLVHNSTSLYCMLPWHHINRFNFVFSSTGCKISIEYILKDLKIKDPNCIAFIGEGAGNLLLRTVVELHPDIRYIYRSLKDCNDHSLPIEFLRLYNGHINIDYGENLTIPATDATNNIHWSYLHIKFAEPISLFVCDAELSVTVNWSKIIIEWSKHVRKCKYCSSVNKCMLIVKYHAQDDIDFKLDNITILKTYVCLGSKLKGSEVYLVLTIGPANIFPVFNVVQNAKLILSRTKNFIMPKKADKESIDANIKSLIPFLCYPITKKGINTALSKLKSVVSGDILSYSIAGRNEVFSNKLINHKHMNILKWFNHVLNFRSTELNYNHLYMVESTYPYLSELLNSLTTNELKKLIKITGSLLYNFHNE
# VSV = conditions: BHK cells, plaque assay; read-out: half maximal effective concentration (EC50), VSV replication; cited from earlier work
# RSV = experiment: Antiviral activity in cellular assay, replication of RSV in HeLa cells; assay type: cell-based, Respiratory syncytial virus; conditions: before toxicity
Compound,inhibitory activity on RSV MTase-CTD compared with GpppG (RSV MTase-CTD),IC50 (RSV L-P complex),further results
Nc1nc2c(ncn2[C@@H]2O[C@H](COP(=O)(O)OP(=O)(O)OP(=O)(O)OC[C@H]3O[C@@H](n4cnc5c(N)ncnc54)[C@H](O)[C@@H]3O)[C@@H](O)[C@H]2O)c(=O)[nH]1 [GpppA],lower inhibitory activity,,
Nc1nc2c(ncn2[C@@H]2O[C@H](COP(=O)(O)OP(=O)(O)OP(=O)(O)OC[C@H]3O[C@@H](n4cnc5c(=O)[nH]c(N)nc54)[C@H](O)[C@@H]3O)[C@@H](O)[C@H]2O)c(=O)[nH]1 [GpppG],,,"inhibition of the activity of the RSV MTase-CTD (RSV MTase-CTD; […], methylation of GpppG-RSV9 RNA by FBA, 50 µM): 50%"
"Nc1ncnc2c1ncn2[C@@H]1O[C@H](CSCC[C@H](N)C(=O)O)[C@@H](O)[C@H]1O [SAH, S-adenosyl homocysteine]",,37.8 µM and ~37.8 µM,IC50 (RSV MTase-CTD; 3 h): 24.7 µM and ~24.7 µM
Cn1c[n+]([C@@H]2O[C@H](COP(=O)(O)OP(=O)([O-])O)[C@@H](O)[C@H]2O)c2nc(N)[nH]c(=O)c21 [^mGDP],lower inhibitory activity,,
C[n+]1cn(C2OC(COP(=O)([O-])OP(=O)(O)OP(=O)(O)OCC3OC(n4cnc5c(N)ncnc54)C(O)C3O)C(O)C2O)c2nc(N)[nH]c(=O)c21 (stereo not shown) [^mGpppA],lower inhibitory activity,,
Nc1ncnc2c1ncn2[C@@H]1O[C@H](C[C@@H](N)CC[C@H](N)C(=O)O)[C@@H](O)[C@H]1O [sinefungin],,9.8 µM and ~9.8 µM,EC50 (VSV): 220 µM; inhibition of replication of RSV (RSV): did not show inhibition activity; IC50 (RSV MTase-CTD): 6.4 µM and ~6.4 µM

# Source: publication PMC8130918 (PLoS Pathogens, 2021)
